Experiments:
[1] = DPPH radical scavenging assay; details: for DPPH Scavenging at 0.1 mM, %: 0.1 mM compound; for DPPH Scavenging at 1 mM, %: 1 mM compound
Protocol: The direct antioxidant effects of compounds 3 were investigated by studying their radical-scavenging effect on the 2,2-diphenyl-1-picrylhydrazyl free radical (DPPH^•). Thus, a 100 μL volume of a methanol solution of each compound was added to 200 μL of 100 μM methanolic DPPH^•, and the solution was kept in the dark at 37 °C for 30 min in a 96-well microliter plate. After this incubation, the absorption at 490 nm of each solution was measured with a microplate reader in order to quantitate its decrease. A blank reading was also taken to calculate the amount of remaining DPPH^•. The radical-scavenging activity exerted by compounds 3 was determined by comparison with a 10 μL of MeOH-treated blank group. Ascorbic acid, a well-known antioxidant acting as a radical scavenger, was used as reference. All samples were analyzed in triplicate. Percent inhibition of the DPPH^• radical was calculated using the equation shown below, where AbsCtrl is the absorbance of the blank group and Abss is the absorbance of the samples containing compounds 3. For each compound showing a percentage of inhibition above 60%, the IC50 value was determined using a dose–response curve obtained from measurements corresponding to at least six concentrations. %Scavenger=AbsCtrl−AbsS/AbsCtrl×100
The radical scavenging activity of all compounds was first studied by the DPPH assay, which measures the ability of antioxidant compounds to donate a hydrogen atom to the violet 2,2-diphenyl-1-picrylhydrazyl radical and transform it into a nonradical species. Thus, it is generally considered to belong to the hydrogen atom transfer (HAT) category of methods for measurement of antioxidant activity.

SH-SY5Y cells = assay: Neuroprotection against okadaic acid in SH-SY5Y cells (MTT); format: cell-based; details: Homo sapiens, SH-SY5Y, 18 h; 1 µM compound; okadaic acid 20 nM; read-out: % Neuroprotection ± SEM at 1 µM (okadaic acid)
Protocol: Neuroprotection studies against tau hyperphosphorylation exerted by okadaic acid (OA) were evaluated using the SH-SY5Y cell line as follows. […] After 18 h, cell viability was addressed by the MTT reduction method. MTT (5 mg/mL, 10 μL/well) was added and incubated for 2 h. Then, the medium was removed and the purple formazan crystals formed by viable cells were dissolved using 100 μL of DMSO. A FluoStar Optima spectrophotometer (BMG Labtech, Ortenberg, Baden-Württemberg, Germany) was used to measure the absorbance at 570 nm.
Okadaic acid is a potent inhibitor of protein phosphatase 2A (PP2A), thereby inducing tau hyperphosphorylation. For this reason, it can be employed as a model of neurodegenerative-disease-connected tau hyperphosphorylation, a well-known feature of Alzheimer’s disease, but present also in other NDDs, collectively known as tauopathies and characterized by the pathological aggregation of hyperphosphorylated tau in neurofibrillary tangles. […] Tau hyperphosphorylation is connected to oxidative stress, which activates p38 and deactivates calcineurin, a phosphatase involved in tau dephosphorylation by increasing RCAN1, its natural repressor [34, 35]. Indeed, hyperphosphorylation and oxidative stress have been proposed to generate a vicious circle that is critical to the advance of neurodegenerative tauopathies.

[2] = Ferric reducing antioxidant power (FRAP) assay; parameters: key to FRAP TEAC: trolox equivalents (TEAC), relative to trolox; details: for FRAP nmol Fe2+ at 30 µM: 30 µM compound, n in brackets; for FRAP TEAC: 30 µM, relative to trolox
Protocol: A ferric reducing antioxidant power (FRAP) kit assay purchased from Sigma-Aldrich (Madrid, Spain) was employed for the experiments. The antioxidant solutions, FRAP assay buffer solution, FeCl3 solution, and FRAP probe solution were kept in ice during the preparation of the plate. A calibration standard curve was prepared by using the 2 mM ferrous standard solution provided in the FRAP kit assay. Appropriate aliquots of this solution were taken and diluted up to a 200 μL final volume with FRAP buffer. The final ferrous concentrations measured in the well were: 0, 20, 40, 60, 80, and 100 μM. Each concentration value was prepared and measured by triplicate. Stock solutions of compounds 3, as well as reference compounds trolox and ferulic acid, were freshly prepared in 95% ethanol at […]. Aliquots of 10 μL of compounds 3 and the reference compounds were mixed with 19 μL FeCl3 solution and 19 μL FRAP probe solution, and then completed to a final volume of 200 μL with FRAP assay buffer solution. The final concentration of antioxidants and references was 30 μM. Compounds 3, reference compounds, as well as the corresponding blank solutions (one for each compound to be assayed, avoiding the chromogenic FRAP probe), and positive control were thoroughly mixed in vortex for 1–2 min with the reaction chromogenic media, and then were incubated under darkness at 37 °C in the dry bath, and using the device for support well-plates. Each compound to be assayed and the reference antioxidant compounds were prepared and measured by triplicate. The absorbance values were measured at 594 nm after 5 min of reaction and, to assure complete reaction, the absorbance values after 60 min of incubation at 37 °C in the dry bath were also measured. The absorbance values of the sample antioxidant compounds were corrected by subtracting the corresponding absorbance values of the blanks, and then they were introduced in the calibration curve and the ferrous equivalents were determined. The reference antioxidants employed for this assay were trolox and ferulic acid, which were obtained from Sigma-Aldrich (Madrid, Spain). Ultrapure water was obtained from a Milli-Q Direct 8 system (Millipore, Molsheim, France).
In order to achieve a broader insight into the antioxidant profile of our compounds, we also examined them using a single electron transfer (SET)-based method, namely the ferric reducing antioxidant power (FRAP) assay, which measures the ability of an antioxidant to reduce the ferric ion in the TPTZ (2,4,6-tri(2-pyridyl)-1,3,5-triazine)-Fe(III) complex.

Row | Compound | DPPH Scavenging at 0.1 mM, % [1] [%] | DPPH Scavenging at 1 mM, % [1] [%] | % neuroprotection against okadaic acid at 1 µM (SH-SY5Y cells) [%] | FRAP nmol Fe2+ at 30 µM [2] | FRAP TEAC [2]
1 | COC(=O)C1=C(C)N(CCc2ccccc2)C(=O)/C1=C\c1cc(OC)c(OC)c(OC)c1 [Compound 3g, Methyl (Z)-2-Methyl-5-oxo-1-phenethyl-4-(3,4,5-trimethoxybenzylidene)-4,5-dihydro-1H-pyrrole-3-carboxylate] | 8.1 ± 4.7 | 46.5 ± 2.3 | 65.7 ± 29.1 | 1.36 ± 0.10 (3) nmol Fe^2+ | 0.60
2 | COC(=O)C1=C(C)N(CCc2ccccc2)C(=O)/C1=C\c1ccc(OCc2ccccc2Cl)c(OC)c1 [Compound 3k, Methyl (Z)-4-[4-((2-Chlorobenzyl)oxy)-3-methoxybenzylidene]-2-methyl-5-oxo-1-phenethyl-4,5-dihydro-1H-pyrrole-3-carboxylate] | 7.3 ±1.4 | 27.3 ± 1.0 | 57.1 ± 22.3 | 1.63 ± 0.01 (3) nmol Fe^2+ | 0.71
3 | COC(=O)C1=C(C)N(CCc2ccccc2)C(=O)/C1=C\c1cc(OC)c(OC)cc1OC [Compound 3f, Methyl (Z)-2-Methyl-5-oxo-1-phenethyl-4-(2,4,5-trimethoxybenzylidene)-4,5-dihydro-1H-pyrrole-3-carboxylate] | 9.7 ± 0.6 | 9.7 ± 2.2 | 48.3 ± 11 | 1.42 ± 0.04 (3) nmol Fe^2+ | 0.62
